Experimental data as given in publication PMC4339220 (2014).

Columns and labels:
[1] = test system: TGGAGA cognate hairpin (biotinylated) (DNA, hairpin) CCTTGGAGAGTTTTCTCTCCAAGG; assay: SPR, global kinetic fit; conditions: 50 mM NaCl; 10 mM HEPES, 1 mM EDTA, pH 7.4, 0.05% P20, 25 °C
[2] = test system: TGGAGA cognate hairpin (DNA, hairpin) CCTTGGAGAGTTTTCTCTCCAAGG; assay: UV melting; conditions: 50 mM NaCl; 10 mM HEPES, 1 mM EDTA, pH 7.4; 3 µM hairpin, 3 µM compound

Structure (SMILES) | KD [1] [µM] | ΔTm [2] [°C]
CN(C)CCCNC(=O)CCNC(=O)c1cc(NC(=O)CCNC(=O)c2cc(NC(=O)c3cc(NC(=O)CCCNC(=O)c4nc(NC(=O)c5cc(NC(=O)c6nc(NC(=O)c7nccn7C)cn6C)cn5C)cn4C)cn3C)cn2C)cn1C | 0.0364 ± 0.0004 | 
CN(C)CCCNC(=O)CCNC(=O)c1cc(NC(=O)c2cc(NC(=O)c3cc(NC(=O)c4cc(NC(=O)CCCNC(=O)c5nc(NC(=O)CCNC(=O)c6nc(NC(=O)c7nccn7C)cn6C)cn5C)cn4C)cn3C)cn2C)cn1C | 0.0121 ± 0.0004 | 
CN(C)CCCNC(=O)CCNC(=O)c1cc(NC(=O)c2cc(NC(=O)c3cc(NC(=O)c4cc(NC(=O)CCCNC(=O)c5nc(NC(=O)c6cc(NC(=O)c7nc(NC(=O)c8nccn8C)cn7C)cn6C)cn5C)cn4C)cn3C)cn2C)cn1C | 0.0025 ± 0.0004 | 7.8
CN(CCCN)CCCNC(=O)CCNC(=O)c1cc(NC(=O)c2cc(NC(=O)c3cc(NC(=O)c4cc(NC(=O)CCCNC(=O)c5nc(NC(=O)c6cc(NC(=O)c7nc(NC(=O)c8nccn8C)cn7C)cn6C)cn5C)cn4C)cn3C)cn2C)cn1C | 0.002 ± 0.0002 | 

Results, then the compound that gave them:

KD [1] [µM] | ΔTm [2] [°C] | Structure (SMILES)
0.0263 ± 0.0022 |  | CN(CCCN)CCCNC(=O)CCNC(=O)c1cc(NC(=O)CCNC(=O)c2cc(NC(=O)c3cc(NC(=O)CCCNC(=O)c4nc(NC(=O)CCNC(=O)c5nc(NC(=O)c6nccn6C)cn5C)cn4C)cn3C)cn2C)cn1C
0.0186 ± 0.0008 | 3.6 | CN(CCCN)CCCNC(=O)CCNC(=O)c1cc(NC(=O)c2cc(NC(=O)CCNC(=O)c3cc(NC(=O)CCCNC(=O)c4nc(NC(=O)CCNC(=O)c5nc(NC(=O)c6nccn6C)cn5C)cn4C)cn3C)cn2C)cn1C
0.0026 ± 0.0002 | 8.0 | CN(CCCN)CCCNC(=O)CCNC(=O)c1cc(NC(=O)c2cc(NC(=O)CCNC(=O)c3cc(NC(=O)CCCNC(=O)c4nc(NC(=O)c5cc(NC(=O)c6nc(NC(=O)c7nccn7C)cn6C)cn5C)cn4C)cn3C)cn2C)cn1C
